From patent US4853221A, “Method for treating non-small cell lung cancer, head and neck cancers and breast cancer” (Warner-Lambert Company, priority 1987, dated 1989)

How the values were obtained:
[1] = test system: Colon 38; experiment: Antitumor activity against colon adenocarcinoma 38 in mice; assay type: in vivo, mouse
[2] = test system: Walker-256; experiment: Inhibition of Walker-256 cell growth in vitro; assay type: cell-based; conditions: Mus musculus, 48 h; Murine Walker-256; read-out: ED50 (the source's name)
Method: (§1) Two leukemia cell lines (L1210 and L5178Y) and two solid tumor cell lines (Sarcoma 180 and Walker 256) were used in these studies.
(§2) Logarithmically growing L1210 cells (approximately 3×10^5 cells/ml) were diluted with Fischer's medium (containing 10% horse serum) to an approximate concentration of 5×10^4 cells/ml. Cells were planted in duplicate into 15 ml culture tubes containing either no drug or various amounts of drug, and incubated for 48 hours at 37° C. before being counted.
(§3) Trimetrexate was also evaluated in a similar manner side-by-side with methotrexate for its effect on the growth of three additional murine cell lines (L5178Y, Sarcoma-180, and Walkler-256) and three human cell lines (acute myelogenous leukemia K-562, T-cell 8402, and B-cell 8392), propagated in vitro.

[3] = test system: Sarcoma-180; experiment: Inhibition of Sarcoma-180 cell growth in vitro; assay type: cell-based; conditions: Mus musculus, 48 h; Murine Sarcoma-180; read-out: ED50 (the source's name)
Method: as §1, §2, §3

[4] = test system: Renal tumor; experiment: Human tumor cloning system, renal tumors; assay type: cell-based; conditions: one hour, 6 specimens
From the text: (§4) The activity of trimetrexate was compared with that of methotrexate in tests with a human tumor cloning system (Latham, et al., Proc. Am. Assoc. Cancer Res., 24: 278 (1983)). The data from these tests appear in Table III were the activities are expressed as the numbers of tumors with 50% or greater reduction in tumor colony forming units after one hour exposure to the drug.

[5] = test system: Colon 26; experiment: Antitumor activity against colon adenocarcinoma 26 in mice; assay type: in vivo, mouse; conditions: for Life Span % ILS / Life Span % T/C: ip every 4 days, Days 1-5
Method: (§5) The growth inhibition properties of 5-methyl-6-[[(3,4,5-trimethoxyphenyl)amino]methyl]-2,4-quinazolinediamine (trimetrexate) against several transplanted murine tumors were evaluated employing the antitumor screening program of the Drug Evaluation Branch of the National Cancer Institute. The protocols for these tests is described in Cancer Chemotherapy Reports, 3: 1-103 (1972). The dosing schedules are results from these tests appear in Table IV.
(§6) Percent increase in median life span (% ILS) values appearing in the tables were calculated from the formula; 100×(median life span in days of treated mice minus median life span in days of untreated mice) divided by median life span in days of untreated control mice. That is, % ILS=[100×(T-C)]/C. % T/C and %ILS are directly interconvertible by the formula % ILS=% T/C -100.
Colon adenocarcinoma Nos. 26 and 38. Colon adenocarcinoma 26 was propagated in Balb/cj mice for 12 to 15 days. After this time, 0.5 ml of a 1% tumor brei, prepared from several excised subcutaneously passaged tumors, was implanted intraperitoneally into CDF1 mice. Animals were treated with drug ip on Days 1 and 5 following tumor implantation. The median survival time of the treated animals was determined and expressed as a percentage of the median survival time of untreated control animals.
(§7) In all of the mouse tumor studies described above, routine controls consisted of matching ten normal mice (with no tumors) to each tumor-bearing treatment group and injecting them with the same drug at the same dosages, schedules, days of administration, and drug route as the tumor-bearing mice. In this way, drug-induced toxicity (lethality and weight loss) could be clearly separated from the effects of the drug on the tumors.

[6] = test system: Ovarian tumor; experiment: Human tumor cloning system, ovarian tumors; assay type: cell-based; conditions: one hour, 6 specimens
From the text: as §4

[7] = test system: Breast tumor; experiment: Human tumor cloning system, breast tumors; assay type: cell-based; conditions: one hour, 10 specimens
From the text: as §4

[8] = test system: L1210; experiment: Antitumor activity against L1210 leukemia in mice; assay type: in vivo, mouse; conditions: for Life Span % ILS / Life Span % T/C: ip daily, Days 1-9
Method: as §5
(§8) In the L1210, P388, and B-16 melanoma models, results are expressed as a percentage of median control survival time. Percentage of increase in survival time and/or cures (30 day survivors) were the parameters used to measure the effectiveness of the agents. An initial median survival value for treated over control percentage (% T/C) equal to or greater than 125% was considered indicative of activity. For confirmatory activity, two multidose assays must show % T/C values equal to or greater than 150%.
as §6
L1210 Leukemic Cells (10^5 /mouse) and P388 leukemic cells (10^6 /mouse)were in the ascites form and were transferred to BD2F1 or CD2F1 mice by intraperitoneal (ip) injection of 0.1 ml of cells taken from animals bearing 6- to 7-day old tumors. Leukemic cells were injected ip one day prior to the start of treatment.
as §7

[9] = test system: non-small cell lung cancer; experiment: Phase II trial, non-small cell lung cancer; assay type: in vivo, human
Method: The efficacy and safety of trimetrexate in the treatment of patients with non-small cell lung cancer was evaluated in a 16-center Phase II study.
Initially, all patients received a single 8 mg/m^2 dose of trimetrexate daily for five days of a 21-day treatment course. The dose was administered at three- or four-week intervals, with the number of treatment courses dependent upon the patient's response.
Objective response was determined by a decrease from baseline in tumor size as set forth by the World Health Organization (WHO) response criteria. Duration of response was measured from the date of first treatment to the first date when progressive disease was documented.
Responses were classified as complete or partial. A complete response was defined as no evidence of disease and a partial response as a 50% or greater decrease in overall tumor size without evidence of progression in 28 days.

[10] = test system: B-16 Melanoma; experiment: Antitumor activity against B-16 melanoma in mice; assay type: in vivo, mouse; conditions: for Life Span % ILS / Life Span % T/C: ip daily, Days 1-9
Method: as §5, §8, §6
B16 Melanotic melanoma was implanted into BD2F1 mice in the form of a tumor "brei" prepared from a 1:10 weight/volume homogenate of the tumor in balanced salt solution.
as §7

[11] = optimal dose 30 mg/kg (dose range 120-3.75)
[12] = optimal dose 60 mg/kg (dose range 120-3.75)
[13] = optimal dose 20 mg/kg (dose range 80-5)
[14] = optimal dose 80 mg/kg (dose range 80-5)
[15] = optimal dose 20 mg/kg (dose range 20-0.62)
[16] = optimal dose 20 mg/kg (dose range 40-1.25)

SMILES: COc1cc(NCc2ccc3nc(N)nc(N)c3c2C)cc(OC)c1OC [Trimetrexate, 5-methyl-6-[[(3,4,5-trimethoxyphenyl)amino]methyl]-2,4-quinazolinediamine]
- antitumor activity ([1]; mouse, in vivo): good activity
- Tumor Weight Inhibition % TWI ([1]; optimal dose 60 mg/kg (dose range 60-1.88), Sc every 7 days, Days 2-9): 85%
- IC50 [2]: 5 nM
- IC50 [3]: 18 nM
- Number of Tumors with 50% or Greater Decrease in Tumor Colony Forming Units ([4]; trimetrexate 0.1 μg/ml): 1
- Number of Tumors with 50% or Greater Decrease in Tumor Colony Forming Units ([4]; trimetrexate 1.0 μg/ml): 1
- antitumor activity ([5]; mouse, in vivo): good activity
- Life Span % ILS [5, 11]: 56%
- Life Span % T/C [5, 11]: 156%
- Life Span % ILS [5, 12]: 115%
- Life Span % T/C [5, 12]: 215%
- Number of Tumors with 50% or Greater Decrease in Tumor Colony Forming Units ([6]; trimetrexate 0.1 μg/ml): 1
- Number of Tumors with 50% or Greater Decrease in Tumor Colony Forming Units ([6]; trimetrexate 1.0 μg/ml): 1
- Number of Tumors with 50% or Greater Decrease in Tumor Colony Forming Units ([7]; trimetrexate 0.1 μg/ml): 0
- Number of Tumors with 50% or Greater Decrease in Tumor Colony Forming Units ([7]; trimetrexate 1.0 μg/ml): 2
- antitumor activity ([8]; mouse, in vivo): good activity
- Life Span % ILS [8, 13]: 72%
- Life Span % T/C [8, 13]: 172%
- Life Span % ILS [8, 14]: 96%
- Life Span % T/C [8, 14]: 196%
- patients with stable disease ([9]; 23 patients): 39%
- median time to progressive disease ([9]; 23 patients with stable disease): 15.7 weeks
- patients who only experienced progressive disease ([9]; 25 patients): 42%
- median time to progression ([9]; 25 patients who only experienced progressive disease): 3.4 weeks
- median time to progressive disease ([9]; 55 of the 59 evaluable patients, range 1.9-75.0): 7.9 weeks
- patients with partial response ([9]; 59 evaluable patients, initial 8 mg/m^2 daily for five days of a 21-day course): Eleven
- response rate (partial response) ([9]; 95% confidence interval 9%-29%, 59 evaluable patients): 19%
- additional patients with 50% regression only by liver measurements ([9]; in vivo): One
- overall median survival time ([9]; in vivo): 26.4 weeks
- patients who only experienced progressive disease (number) ([9]; in vivo): 25 patients
- patients with stable disease (number) ([9]; in vivo): 23 patients
- patients without progressive disease at end of reporting period ([9]; in vivo): Four
- median time to progressive disease ([9]; patients who responded, range 11.1-47.0): 24.9 weeks
- median duration of partial response ([9]; range 5.6-40.7): 15.3 weeks
- antitumor activity ([10]; intraperitoneally implanted): good activity
- Life Span % ILS [10, 15]: 50%
- Life Span % T/C [10, 15]: 150%
- Life Span % ILS [10, 16]: 64%
- Life Span % T/C [10, 16]: 164%
